Assay results as given in patent publication US11225480B2, “Malic enzyme inhibitors” (SUN PHARMA ADVANCED RESEARCH COMPANY LTD, priority 2019, dated 2022).

Key:
Format in all cases: biochemical
human ME1 enzyme = molecular target: T1, human ME1 enzyme (Homo sapiens, UniProt P48163); experiment: ME1 inhibition assay (diaphorase/resazurin coupled fluorescence); conditions: 10 μM compound concentration; read-out: Malic Enzyme 1 % inhibition (10 μM)
T1 sequence (P48163 1-572): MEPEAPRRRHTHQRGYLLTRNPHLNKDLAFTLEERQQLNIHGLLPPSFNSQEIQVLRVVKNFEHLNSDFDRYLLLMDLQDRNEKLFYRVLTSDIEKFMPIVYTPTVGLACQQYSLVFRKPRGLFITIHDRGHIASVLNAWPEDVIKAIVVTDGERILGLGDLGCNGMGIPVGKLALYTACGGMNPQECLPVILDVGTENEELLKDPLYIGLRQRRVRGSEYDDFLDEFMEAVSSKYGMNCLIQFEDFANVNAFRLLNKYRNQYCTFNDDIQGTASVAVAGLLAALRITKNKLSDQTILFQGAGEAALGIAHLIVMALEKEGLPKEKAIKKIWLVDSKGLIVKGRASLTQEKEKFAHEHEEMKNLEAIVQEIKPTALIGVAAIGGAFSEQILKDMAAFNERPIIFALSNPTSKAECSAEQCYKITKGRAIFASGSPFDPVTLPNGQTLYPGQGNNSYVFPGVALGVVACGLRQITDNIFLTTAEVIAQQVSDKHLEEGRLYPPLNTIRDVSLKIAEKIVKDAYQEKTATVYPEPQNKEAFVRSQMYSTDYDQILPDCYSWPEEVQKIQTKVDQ
How it was run: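 Compounds at 10 μM preincubated 15 min in 50 mM Tris-HCl pH 7.5, 10 mM MnCl2, 2 mM L-malate, 10 μM resazurin, 0.01 mg/ml diaphorase, then human ME1 added for 5 min; reaction started with NADP+ and run 2 h at room temperature. Resorufin fluorescence (ex 540/em 600 nm) normalized to enzyme-only (100%) and no-enzyme (0%) controls.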

human ME3 enzyme = molecular target: T2, human ME3 enzyme (Homo sapiens, UniProt Q16798); experiment: ME3 inhibition assay (diaphorase/resazurin coupled fluorescence); conditions: 10 μM compound concentration; read-out: Malic Enzyme 3 % inhibition (10 μM)
T2 sequence (Q16798 1-604): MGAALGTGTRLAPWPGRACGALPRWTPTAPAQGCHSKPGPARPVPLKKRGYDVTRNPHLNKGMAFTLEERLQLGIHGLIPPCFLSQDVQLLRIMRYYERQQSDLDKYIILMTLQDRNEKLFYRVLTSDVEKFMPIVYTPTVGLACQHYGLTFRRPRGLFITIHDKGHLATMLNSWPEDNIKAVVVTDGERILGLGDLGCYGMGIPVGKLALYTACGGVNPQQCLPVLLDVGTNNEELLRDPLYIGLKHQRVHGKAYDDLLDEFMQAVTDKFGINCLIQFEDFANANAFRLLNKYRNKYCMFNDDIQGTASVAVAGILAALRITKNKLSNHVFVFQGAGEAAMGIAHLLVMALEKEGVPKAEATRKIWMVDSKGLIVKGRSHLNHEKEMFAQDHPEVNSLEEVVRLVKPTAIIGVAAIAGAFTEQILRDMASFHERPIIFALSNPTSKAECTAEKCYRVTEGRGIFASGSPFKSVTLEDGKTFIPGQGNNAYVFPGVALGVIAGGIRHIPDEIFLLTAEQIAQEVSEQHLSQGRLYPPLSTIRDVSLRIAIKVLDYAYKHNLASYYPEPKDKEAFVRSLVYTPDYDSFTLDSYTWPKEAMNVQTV
How it was run: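 Coupled read-out: NADPH made by human ME3 (20 nM stock) drives diaphorase conversion of resazurin (50 μM) to resorufin; buffer 50 mM Tris-HCl pH 7.5, 10 mM MnCl2, 3 mM L-malate.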

human ME2 enzyme = human ME2 enzyme (Homo sapiens, UniProt P23368); experiment: ME2 inhibition assay (diaphorase/resazurin coupled fluorescence); conditions: 10 μM compound concentration; read-out: Malic Enzyme 2 % inhibition (10 μM)
How it was run: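 Human ME2 (10 μL of 60 nM) was preincubated 5 min at room temperature with compound (10 μM) in 50 mM Tris-HCl pH 7.5, 10 mM MnCl2, 7 mM L-malate, 50 μM resazurin and 0.025 mg/ml diaphorase. The reaction was started with 10 μL of 2 mM β-NAD+ and run 2 hours at room temperature. Resorufin fluorescence (ex 540/em 600 nm) was normalized to enzyme-only (100%) and no-enzyme (0%) controls as % activity.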

human ME2 enzyme, sequence (P23368 19-584): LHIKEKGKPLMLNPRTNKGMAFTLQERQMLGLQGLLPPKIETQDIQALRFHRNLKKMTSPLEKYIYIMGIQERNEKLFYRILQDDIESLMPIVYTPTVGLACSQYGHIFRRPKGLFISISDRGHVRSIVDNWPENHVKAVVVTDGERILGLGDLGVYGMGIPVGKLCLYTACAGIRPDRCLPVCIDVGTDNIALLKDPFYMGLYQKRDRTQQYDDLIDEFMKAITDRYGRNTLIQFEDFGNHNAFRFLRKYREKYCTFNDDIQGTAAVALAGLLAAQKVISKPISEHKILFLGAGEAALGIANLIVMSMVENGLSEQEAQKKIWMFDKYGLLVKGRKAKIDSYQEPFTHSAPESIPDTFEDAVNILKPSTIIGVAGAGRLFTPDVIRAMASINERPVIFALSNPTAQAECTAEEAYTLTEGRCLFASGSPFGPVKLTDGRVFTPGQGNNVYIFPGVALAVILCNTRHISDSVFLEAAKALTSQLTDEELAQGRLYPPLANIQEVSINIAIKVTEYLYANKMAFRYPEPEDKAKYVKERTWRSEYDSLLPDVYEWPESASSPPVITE

| SMILES | inhibition at 10 µM (human ME1 enzyme) | inhibition at 10 µM (human ME3 enzyme) | inhibition at 10 µM (human ME2 enzyme) |
| --- | --- | --- | --- |
| O=C(CCc1cc2ccccc2s1)N1CCN(c2ccc(O)cn2)CC1 [I.122, 3-Benzo[b]-thiophen-2-yl-1-[4-(5-hydroxy-pyridin-2-yl)-piperazin-1-yl]-propan-1-one] | > 90% | > 90% | > 90% |
| O=C(c1ccc(-c2ccccc2)s1)N1CCN(c2ccc(O)cn2)CC1 [I.123, [4-(5-Hydroxy-pyridin-2-yl)-piperazin-1-yl]-(5-phenyl-thiophen-2-yl)-methanone] | 70 to 89% | > 90% | 70 to 89% |
| O=C(C1CC(O)(c2ccccc2)C1)N1CCN(c2ccc(O)cn2)CC1 (stereo not drawn) [I.124, (3-Hydroxy-3-phenylcyclo-butyl)-[4-(5-hydroxy-pyridin-2-yl)-piperazin-1-yl]-methanone] | > 90% | > 90% | > 90% |
| CC(C)(CC(=O)N1CCN(c2ccc(O)cn2)CC1)c1ccccc1 [I.125, 1-[4-(5-Hydroxy-pyridin-2-yl)-piperazin-1-yl]-3-methyl-3-phenyl-butan-1-one] | > 90% | > 90% | > 90% |
| O=C(CCc1ccc(F)cc1)N1CCN(c2ccc(O)cn2)CC1 [I.126, 3-(4-Fluoro-phenyl)-1-[4-(5-hydroxy-pyridin-2-yl)-piperazin-1-yl]-propan-1-one] | > 90% | > 90% | > 90% |
| Cc1[nH]c2ccccc2c1CC(=O)N1CCN(c2ccc(O)cn2)CC1 [I.127, 1-[4-(5-Hydroxy-pyridin-2-yl)-piperazin-1-yl]-2-(2-methyl-1H-indol-3-yl)-ethanone] | > 90% | > 90% | > 90% |
| O=C(CCc1ccccc1C(F)(F)F)N1CCN(c2ccc(O)cn2)CC1 [I.128, 1-[4-(5-Hydroxy-pyridin-2-yl)-piperazin-1-yl]-3-(2-trifluoro-methylphenyl)-propan-1-one] | > 90% | > 90% | > 90% |
| O=C(CCc1ccccn1)N1CCN(c2ccc(O)cn2)CC1 [I.129, 1-[4-(5-Hydroxy-pyridin-2-yl)-piperazin-1-yl]-3-pyridin-2-yl-propan-1-one] | 70 to 89% | > 90% | 70 to 89% |
| O=C(CC(O)c1ccccc1)N1CCN(c2ccc(O)cn2)CC1 (stereo not drawn) [I.130, 3-Hydroxy-1-[4-(5-hydroxy-pyridin-2-yl)-piperazin-1-yl]-3-phenyl-propan-1-one] | 70 to 89% | > 90% | > 90% |
| O=C(Cc1c[nH]c2ccc(F)cc12)N1CCN(c2ccc(O)cn2)CC1 [I.131, 2-(5-fluoro-1H-indol-3-yl)-1-[4-(5-hydroxypyridin-2-yl)-piperazin-1-yl]-ethanone] | > 90% | > 90% | > 90% |
| O=C(C1CCCc2ccccc21)N1CCN(c2ccc(O)cn2)CC1 (stereo not drawn) [I.132, [4-(5-Hydroxy-pyridin-2-yl)-piperazin-1-yl]-(1,2,3,4-tetrahydro-naphthalen-1-yl)-methanone] | 70 to 89% | > 90% | > 90% |
| O=C(C1CC(c2ccccc2)C1)N1CCN(c2ccc(O)cn2)CC1 (stereo not drawn) [I.134, [4-(5-Hydroxy-pyridin-2-yl)-piperazin-1-yl]-(3-phenyl-cyclobutyl)-methanone] | > 90% | > 90% | > 90% |
| O=C(CCn1ccc2ccccc21)N1CCN(c2ccc(O)cn2)CC1 [I.135, 1-[4-(5-Hydroxy-pyridin-2-yl)-piperazin-1-yl]-3-indol-1-yl-propan-1-one] | 70 to 89% | > 90% | > 90% |
| O=C(CCn1cnc2ccccc21)N1CCN(c2ccc(O)cn2)CC1 [I.136, 3-Benzo-imidazol-1-yl-1-[4-(5-hydroxy-pyridin-2-yl)-piperazin-1-yl]-propan-1-one] | 70 to 89% | > 90% | > 90% |
| O=C(CC1CC1)N1CCN(c2ccc(O)cn2)CC1 [I.137, 2-Cyclo-propyl-1-[4-(5-hydroxy-2-pyridyl)-piperazin-1-yl]ethanone] | > 90% | > 90% | > 90% |
| N#Cc1ccc(CCC(=O)N2CCN(c3ccc(O)cn3)CC2)cc1 [I.138, 3-(4-Cyano-phenyl)-1-[4-(5-hydroxy-pyridin-2-yl)-piperazin-1-yl]-propan-1-one] | > 90% | > 90% | > 90% |
| O=C(CCc1ccc(C(F)(F)F)cc1)N1CCN(c2ccc(O)cn2)CC1 [I.139, 3-(4-Trifluoro-methylphenyl)-1-[4-(5-hydroxy-pyridin-2-yl)-piperazin-1-yl]-propan-1-one] | > 90% | > 90% | > 90% |
| O=C(CCC1CC1)N1CCN(c2ccc(O)cn2)CC1 [I.140, 3-Cyclo-propyl-1-[4-(5-hydroxy-2-pyridyl)-piperazin-1-yl]propan-1-one] | > 90% | > 90% | > 90% |
| O=C(O)c1ccccc1CCC(=O)N1CCN(c2ccc(O)cn2)CC1 [I.141, 2-{3-[4-(5-Hydroxy-pyridin-2-yl)-piperazin-1-yl]-3-oxo-propyl}-benzoic acid] | 70 to 89% | > 90% | > 90% |
| COC(=O)c1ccccc1CCC(=O)N1CCN(c2ccc(O)cn2)CC1 [I.142, 2-{3-[4-(5-Hydroxy-pyridin-2-yl)-piperazin-1-yl]-3-oxo-propyl}-benzoic acid methyl ester] | 70 to 89% | > 90% | > 90% |
| O=C(CSc1ccccc1Br)N1CCN(c2ccc(O)cn2)CC1 [I.143, 2-(2-Bromo-phenylsulfanyl)-1-[4-(5-hydroxy-pyridin-2-yl)-piperazin-1-yl]-ethanone] | > 90% | > 90% | > 90% |
| O=C(C(O)Cc1ccccc1)N1CCN(c2ccc(O)cn2)CC1 (stereo not drawn) [I.144, 2-Hydroxy-1-[4-(5-hydroxy-pyridin-2-yl)-piperazin-1-yl]-3-phenyl-propan-1-one] | 50 to 69% | > 90% | > 90% |
| Cc1cc(F)ccc1CCC(=O)N1CCN(c2ccc(O)cn2)CC1 [I.145, 3-(4-Fluoro-2-methyl-phenyl)-1-[4-(5-hydroxy-pyridin-2-yl)-piperazin-1-yl]-propan-1-one] | > 90% | > 90% | > 90% |
| Cc1cccc(CCC(=O)N2CCN(c3ccc(O)cn3)CC2)c1C [I.146, 3-(2,3-Dimethyl-phenyl)-1-[4-(5-hydroxy-pyridin-2-yl)-piperazin-1-yl]-propan-1-one] | > 90% | > 90% | > 90% |
| Cc1cccc(C)c1CCC(=O)N1CCN(c2ccc(O)cn2)CC1 [I.147, 3-(2,6-Dimethyl-phenyl)-1-[4-(5-hydroxy-pyridin-2-yl)-piperazin-1-yl]-propan-1-one] | > 90% | > 90% | > 90% |
